# Results taken from patent publication US8415379B2, “Pyridines” (Hoffmann-La Roche Inc., priority 2009, dated 2013).
# Molecular target: T1, GABA A α5 (human receptors of composition α5β3γ2) (Homo sapiens, UniProt P18507+P31644)
# T1 construct: expressed in transfected cells; host or cells: HEK293 cells, transiently transfected; membrane homogenates used
# Assay: [3H]flumazenil competition binding assay, human GABA A α5β3γ2 receptors in HEK293 cells
# Details: displacement of 0.5 nM [3H]flumazenil, HEK293 membranes, 1 hour at 4° C., means of two determinations, read-out: hKi GABA A α5
# Description: The affinity of compounds at GABA A receptor subtypes was measured by competition for [^3H]flumazenil (85 Ci/mmol; Roche) binding to HEK293 cells expressing rat (stably transfected) or human (transiently transfected) receptors of composition α1β3γ2, α2β3γ2, α3β3γ2 and α5β3γ2.
# Cell pellets were suspended in Krebs-tris buffer (4.8 mM KCl, 1.2 mM CaCl2, 1.2 mM MgCl2, 120 mM NaCl, 15 mM Tris; pH 7.5; binding assay buffer), homogenized by polytron for ca. 20 sec on ice and centrifuged for 60 min at 4° C. (50000 g; Sorvall, rotor: SM24=20000 rpm). The cell pellets were re-suspended in Krebs-tris buffer and homogenized by polytron for ca. 15 sec on ice. Protein was measured (Bradford method, Bio-Rad) and aliquots of 1 mL were prepared and stored at −80° C.
# Radioligand binding assays were carried out in a volume of […] (96-well plates) which contained […] of cell membranes, [^3H]flumazenil at a concentration of 1 nM for α1, α2 and α3 subunits and 0.5 nM for α5 subunits and the test compound in the range of […]. Nonspecific binding was defined by 10^−5 M diazepam and typically represented less than 5% of the total binding. Assays were incubated to equilibrium for 1 hour at 4° C. and harvested onto GF/C uni-filters (Packard) by filtration using a Packard harvester and washing with ice-cold wash buffer (50 mM Tris; pH 7.5). After drying, filter-retained radioactivity was detected by liquid scintillation counting. Ki values were calculated using Excel-Fit (Microsoft) and are the means of two determinations.
row,Ki,SMILES
1,13.9 nM,"Cc1onc(-c2ccccc2)c1COc1ccc(C(=O)NC2CCOC2)nc1 (racemic) [Example 3, Rac-5-(5-Methyl-3-phenyl-isoxazol-4-ylmethoxy)-pyridine-2-carboxylic acid (tetrahydro-furan-3-yl)-amide]"
2,8.1 nM,"CCC(CO)NC(=O)c1ccc(OCc2c(-c3ccccn3)noc2C)cn1 (racemic) [Example 20, Rac-5-(5-Methyl-3-pyridin-2-yl-isoxazol-4-ylmethoxy)-pyridine-2-carboxylic acid (1-hydroxymethyl-propyl)-amide]"
3,15.4 nM,"Cc1onc(-c2ccccc2)c1COc1ccc(C(=O)NCCO)nc1 [Example 1, 5-(5-Methyl-3-phenyl-isoxazol-4-ylmethoxy)-pyridine-2-carboxylic acid (2-hydroxy-ethyl)-amide]"
4,8.9 nM,"Cc1onc(-c2ccccc2)c1COc1ccc(C(=O)NC(C)C)nc1 [Example 2, 5-(5-Methyl-3-phenyl-isoxazol-4-ylmethoxy)-pyridine-2-carboxylic acid isopropylamide]"
5,26.5 nM,"Cc1onc(-c2ccccc2)c1COc1ccc(C(=O)NN(C)C)nc1 [Example 4, 5-(5-Methyl-3-phenyl-isoxazol-4-ylmethoxy)-pyridine-2-carboxylic acid N′,N′-dimethyl-hydrazide]"
6,17 nM,"Cc1onc(-c2ccccc2)c1COc1ccc(C(=O)NN2CCOCC2)nc1 [Example 5, 5-(5-Methyl-3-phenyl-isoxazol-4-ylmethoxy)-pyridine-2-carboxylic acid morpholin-4-ylamide]"
7,4.8 nM,"Cc1onc(-c2ccccn2)c1COc1ccc(C(=O)NC2CCOCC2)nc1 [Example 6, 5-(5-Methyl-3-pyridin-2-yl-isoxazol-4-ylmethoxy)-pyridine-2-carboxylic acid (tetrahydro-pyran-4-yl)-amide]"
8,3.2 nM,"Cc1onc(-c2ccccn2)c1COc1ccc(C(=O)NC(C)C)nc1 [Example 7, 5-(5-Methyl-3-pyridin-2-yl-isoxazol-4-ylmethoxy)-pyridine-2-carboxylic acid isopropyl-amide]"
9,22.3 nM,"Cc1onc(-c2ccccn2)c1COc1ccc(C(=O)NC(C)(C)CO)nc1 [Example 8, 5-(5-Methyl-3-pyridin-2-yl-isoxazol-4-ylmethoxy)-pyridine-2-carboxylic acid (2-hydroxy-1,1-dimethyl-ethyl)-amide]"
10,4.4 nM,"Cc1onc(-c2ccccn2)c1COc1ccc(C(=O)NN2CCOCC2)nc1 [Example 9, 5-(5-Methyl-3-pyridin-2-yl-isoxazol-4-ylmethoxy)-pyridine-2-carboxylic acid morpholin-4-ylamide]"
11,34.2 nM,"Cc1onc(-c2ccccn2)c1COc1ccc(C(=O)N2CCS(=O)(=O)CC2)nc1 [Example 10, (1,1-Dioxo-1,6-thiomorpholin-4-yl)-[5-(5-methyl-3-pyridin-2-yl-isoxazol-4-ylmethoxy)-pyridin-2-yl]-methanone]"
12,3.5 nM,"Cc1onc(-c2ccccn2)c1COc1ccc(C(=O)NC2CC2)nc1 [Example 11, 5-(5-Methyl-3-pyridin-2-yl-isoxazol-4-ylmethoxy)-pyridine-2-carboxylic acid cyclopropyl amide]"
13,7.1 nM,"Cc1onc(-c2ccccn2)c1COc1ccc(C(=O)NCC2CC2)nc1 [Example 12, 5-(5-Methyl-3-pyridin-2-yl-isoxazol-4-ylmethoxy)-pyridine-2-carboxylic acid cyclopropyl-methyl-amide]"
14,4.6 nM,"Cc1onc(-c2ccccn2)c1COc1ccc(C(=O)NCC(F)(F)F)nc1 [Example 13, 5-(5-Methyl-3-pyridin-2-yl-isoxazol-4-ylmethoxy)-pyridine-2-carboxylic acid (2,2,2-trifluoro-ethyl)-amide]"
15,7.8 nM,"Cc1onc(-c2ccccn2)c1COc1ccc(C(=O)NCCO)nc1 [Example 14, 5-(5-Methyl-3-pyridin-2-yl-isoxazol-4-ylmethoxy)-pyridine-2-carboxylic acid (2-hydroxy-ethyl)-amide]"
16,5.8 nM,"CCNC(=O)c1ccc(OCc2c(-c3ccccn3)noc2C)cn1 [Example 15, 5-(5-Methyl-3-pyridin-2-yl-isoxazol-4-ylmethoxy)-pyridine-2-carboxylic acid ethylamide]"
17,7.1 nM,"CNC(=O)c1ccc(OCc2c(-c3ccccn3)noc2C)cn1 [Example 16, 5-(5-Methyl-3-pyridin-2-yl-isoxazol-4-ylmethoxy)-pyridine-2-carboxylic acid methylamide]"

row,Ki,SMILES
1,32.9 nM,"Cc1onc(-c2ccccn2)c1COc1ccc(C(=O)N2CCSCC2)nc1 [Example 17, [5-(5-Methyl-3-pyridin-2-yl-isoxazol-4-ylmethoxy)-pyridin-2-yl]-thiomorpholin-4-yl-methanone]"
2,5.6 nM,"Cc1onc(-c2ccccn2)c1COc1ccc(C(=O)N[C@H]2CCC[C@@H]2O)nc1 [Example 18, 5-(5-Methyl-3-pyridin-2-yl-isoxazol-4-ylmethoxy)-pyridine-2-carboxylic acid ((1S,2S)-2-hydroxy-cyclopentyl)-amide]"
3,1.7 nM,"Cc1onc(-c2ccccn2)c1COc1ccc(C(=O)Nc2cnn(C)c2)nc1 [Example 19, 5-(5-Methyl-3-pyridin-2-yl-isoxazol-4-ylmethoxy)-pyridine-2-carboxylic acid (1-methyl-1H-pyrazol-4-yl)-amide]"
4,4.3 nM,"CC[C@@H](CO)NC(=O)c1ccc(OCc2c(-c3ccccn3)noc2C)cn1 [Example 21, 5-(5-Methyl-3-pyridin-2-yl-isoxazol-4-ylmethoxy)-pyridine-2-carboxylic acid ((S)-1-hydroxymethyl-propyl)-amide]"
5,5.6 nM,"Cc1onc(-c2ccccn2)c1COc1ccc(C(=O)N[C@@H](C)C(F)(F)F)nc1 [Example 22, 5-(5-Methyl-3-pyridin-2-yl-isoxazol-4-ylmethoxy)-pyridine-2-carboxylic acid ((S)-2,2,2-trifluoro-1-methyl-ethyl)-amide]"
6,3.3 nM,"Cc1onc(-c2ccc(F)cn2)c1COc1ccc(C(=O)NC(C)C)nc1 [Example 23, 5-[3-(5-Fluoro-pyridin-2-yl)-5-methyl-isoxazol-4-ylmethoxy]-pyridine-2-carboxylic acid isopropylamide]"
7,17.5 nM,"Cc1onc(-c2ccc(F)cn2)c1COc1ccc(C(=O)NC(C)(C)CO)nc1 [Example 24, 5-[3-(5-Fluoro-pyridin-2-yl)-5-methyl-isoxazol-4-ylmethoxy]-pyridine-2-carboxylic acid (2-hydroxy-1,1-dimethyl-ethyl)-amide]"
8,3.9 nM,"Cc1onc(-c2ccc(F)cn2)c1COc1ccc(C(=O)NN2CCOCC2)nc1 [Example 25, 5-[3-(5-Fluoro-pyridin-2-yl)-5-methyl-isoxazol-4-ylmethoxy]-pyridine-2-carboxylic acid morpholin-4-ylamide]"
9,36.9 nM,"Cc1onc(-c2ccc(F)cn2)c1COc1ccc(C(=O)N2CCS(=O)(=O)CC2)nc1 [Example 26, (1,1-Dioxo-1,6-thiomorpholin-4-yl)-{5-[3-(5-fluoro-pyridin-2-yl)-5-methyl-isoxazol-4-ylmethoxy]-pyridin-2-yl}-methanone]"
10,2.6 nM,"Cc1onc(-c2ccc(F)cn2)c1COc1ccc(C(=O)NC2CC2)nc1 [Example 27, 5-[3-(5-Fluoro-pyridin-2-yl)-5-methyl-isoxazol-4-ylmethoxy]-pyridine-2-carboxylic acid cyclopropylamide]"
11,4.2 nM,"Cc1onc(-c2ccc(F)cn2)c1COc1ccc(C(=O)NCC(F)(F)F)nc1 [Example 28, 5-[3-(5-Fluoro-pyridin-2-yl)-5-methyl-isoxazol-4-ylmethoxy]-pyridine-2-carboxylic acid (2,2,2-trifluoro-ethyl)-amide]"
12,70.2 nM,"CC(C)NC(=O)c1ccc(OCc2c(-c3ccc(F)cc3)noc2CO)cn1 [Example 29, 5-[3-(4-Fluoro-phenyl)-5-hydroxymethyl-isoxazol-4-ylmethoxy]-pyridine-2-carboxylic acid isopropylamide]"
13,30.3 nM,"O=C(NC1CCOCC1)c1ccc(OCc2c(-c3ccc(F)cc3)noc2CO)cn1 [Example 30, 5-[3-(4-Fluoro-phenyl)-5-hydroxymethyl-isoxazol-4-ylmethoxy]-pyridine-2-carboxylic acid (tetrahydro-pyran-4-yl)-amide]"
14,23.3 nM,"O=C(NC1CC1)c1ccc(OCc2c(-c3ccc(F)cc3)noc2CO)cn1 [Example 31, 5-[3-(4-Fluoro-phenyl)-5-hydroxymethyl-isoxazol-4-ylmethoxy]-pyridine-2-carboxylic acid cyclopropylamide]"
15,60.4 nM,"CC(NC(=O)c1ccc(OCc2c(-c3ccc(F)cc3)noc2CO)cn1)C(F)(F)F (stereo not drawn) [Example 32, 5-[3-(4-Fluoro-phenyl)-5-hydroxymethyl-isoxazol-4-ylmethoxy]-pyridine-2-carboxylic acid (2,2,2-trifluoro-1-methyl-ethyl)-amide]"
16,10.2 nM,"O=C(NCC(F)(F)F)c1ccc(OCc2c(-c3ccc(F)cc3)noc2CO)cn1 [Example 33, 5-[3-(4-Fluoro-phenyl)-5-hydroxymethyl-isoxazol-4-ylmethoxy]-pyridine-2-carboxylic acid (2,2,2-trifluoro-ethyl)-amide]"
